Data as given in patent US8926082B2, “Optically polymerizable ink jet ink, ink cartridge, and printer” (Ricoh Company, Ltd., priority 2011, dated 2015).

Key:
[1] = "negative" or "none": SI value naturally less than 3; cited from earlier work
[2] = skin sensitization test by Local Lymph Node Assay (LLNA), Stimulation Index; assay type: in vivo; conditions: SI less than 3 = no problem
Text: However, inkjet ink in which such compounds are blended to provide a curing property sufficient for practical use has a relatively high viscosity in comparison with typical optical polymerizable inkjet ink. Therefore, for example, if a desirable high image density is to be obtained by increasing the blend ratio of a pigment, such inkjet ink requires an extra decrease in the viscosity to achieve stable ejection.
The Local Lymph Node Assay (LLNA) method is a skin sensitization test defined as OECD Test Guideline 429 and as described in documents such as an issue of September 2005, Vol. 25, No. 9, p 55, published by CMC Publishing Co., Ltd., when a compound has a Stimulation Index (SI) of less than 3, which is an indicator of the degree of […], the compound is determined to have no problem with regard to the skin sensitization.
The details of A1 to A14, B1 and B2, C1 and C2, and D1 in Tables 1 to 8 are as follows: The value in the parentheses at the end of A1 to A14 is an SI value. “negative” or “none” means evaluation of skin sensitization as “negative” or “none” in the MSDS sheet in which the SI value is naturally less than 3.

Molecule | evaluation of skin sensitization in the MSDS sheet [1] | SI value (Stimulation Index) [2]
Caprolactone-modified dipentaerythritol hexaacrylate [Example A7] | negative | –
C=CC(=O)NCCO [Example A11, Hydroxyethyl acrylamide] | None | –
C=C(C)C(=O)OC1CCOC1=O (stereo not drawn) [Example A4, γ-butylo lactone methacrylate] | – | 2.1
